Experimental data: PubChem BioAssay AID180 (DTP/NCI, 2004)
Values joined by “and” are separate entries in the source; they are usually repeats but may differ in a detail not shown here. Identical values can stand only once.

Test system: BDF1 mice, Adenocarcinoma 755 s.c., tumor weight T/C
Assay: NCI In Vivo Anticancer Drug Screen. Data for tumor model Adenocarcinoma 755 (subcutaneous) in B6D2F1 (BDF1) mice
Settings: endpoint: mean tumor weight, higher = larger tumour
Summary of the method: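 Values express treated (T) relative to vehicle-dosed control (C) animals, based on survival or tumour size measured after compound treatment of mice bearing a transplanted tumour.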

[1] = dose: 25.0 mg/kg/injection, schedule: Q01DX011 (ip), vehicle: carboxymethylcellulose (CMC)
[2] = dose: 50.0 mg/kg/injection, schedule: Q01DX011 (ip), vehicle: carboxymethylcellulose (CMC)
[3] = dose: 25.0 mg/kg/injection, schedule: Q01DX011 (ip), vehicle: methylcellulose (MC)
[4] = dose: 100.0 mg/kg/injection, schedule: Q01DX011 (ip), vehicle: carboxymethylcellulose (CMC)

With `O=S(=O)(NCc1ccccc1)c1ncnc2nc[nH]c12` the T/C (dose: 12.5 mg/kg/injection, schedule: Q01DX011 (ip), vehicle: carboxymethylcellulose (CMC)) was 73 % of control, the T/C [1] was 3 % of control and the T/C [2] was 1 % of control.
With `C=CCC1(CCC)C(=O)NC(=O)NC1=O` the T/C (dose: 17.5 mg/kg/injection, schedule: Q01DX011 (ip), vehicle: methylcellulose (MC)) was 79 % of control and 86 % of control, the T/C (dose: 70.0 mg/kg/injection, schedule: Q01DX011 (ip), vehicle: methylcellulose (MC)) was 23 % of control and 41 % of control and the T/C (dose: 140.0 mg/kg/injection, schedule: Q01DX011 (ip), vehicle: methylcellulose (MC)) was 42 % of control.
For `Cn1c(=O)c2c(nc(C(=N)SCC(=O)O)n2C)n(C)c1=O`, the T/C [3] was 61 % of control.
In the case of `CCN(CC)CCCC(C)Nc1c2ccc(Cl)cc2nc2ccc(OC)cc12` (stereo unspecified), the T/C [1] is reported as 68 % of control, the T/C [2] is reported as 62 % of control and the T/C [4] is reported as 52 % of control.
With `CC(=O)[C@@]12OC(C)(C)O[C@@H]1C[C@H]1[C@@H]3C[C@H](C)C4=CC(=O)CC[C@]4(C)[C@H]3CC[C@@]12C` the T/C (dose: 56.0 mg/kg/injection, schedule: Q01DX011 (sc), vehicle: steriod suspending solution) was 28 % of control, the T/C (dose: 62.0 mg/kg/injection, schedule: Q01DX011 (sc), vehicle: steriod suspending solution) was 34 % of control and the T/C (dose: 75.0 mg/kg/injection, schedule: Q01DX011 (sc), vehicle: steriod suspending solution) was 38 % of control. The T/C (dose: 113.0 mg/kg/injection, schedule: Q01DX011 (sc), vehicle: steriod suspending solution) was 46 % of control, the T/C (dose: 125.0 mg/kg/injection, schedule: Q01DX011 (sc), vehicle: steriod suspending solution) was 21 % of control and the T/C (dose: 150.0 mg/kg/injection, schedule: Q01DX011 (sc), vehicle: steriod suspending solution) was 18 % of control. The T/C (dose: 225.0 mg/kg/injection, schedule: Q01DX011 (sc), vehicle: steriod suspending solution) was 24 % of control, the T/C (dose: 250.0 mg/kg/injection, schedule: Q01DX011 (sc), vehicle: steriod suspending solution) was 17 % of control and the T/C (dose: 300.0 mg/kg/injection, schedule: Q01DX011 (sc), vehicle: steriod suspending solution) was 15 % of control. The T/C (dose: 450.0 mg/kg/injection, schedule: Q01DX011 (sc), vehicle: steriod suspending solution) was 35 % of control, the T/C (dose: 600.0 mg/kg/injection, schedule: Q01DX011 (sc), vehicle: steriod suspending solution) was 14 % of control and the T/C (dose: 900.0 mg/kg/injection, schedule: Q01DX011 (sc), vehicle: steriod suspending solution) was 16 % of control.
For `Cn1c(=O)c2c(nc(N(CCO)CCO)n2C)n(C)c1=O`, the T/C (dose: 480.0 mg/kg/injection, schedule: Q01DX011 (ip), vehicle: saline) was 112 % of control.
In the case of `CCCCn1cnc2c(SC3CCCC3)ncnc21`, the T/C [1] is reported as 38 % of control, the T/C [2] is reported as 13 % of control and the T/C [4] is reported as 4 % of control. The T/C (dose: 200.0 mg/kg/injection, schedule: Q01DX011 (ip), vehicle: carboxymethylcellulose (CMC)) was 3 % of control.
`Cc1nc(N2CC2)nc(N2CC2)c1[N+](=O)[O-]` was tested, and the T/C (dose: 0.6 mg/kg/injection, schedule: Q01DX011 (ip), vehicle: methylcellulose (MC)) was 47 % of control, the T/C (dose: 1.1 mg/kg/injection, schedule: Q01DX011 (ip), vehicle: methylcellulose (MC)) was 59 % of control and the T/C (dose: 2.25 mg/kg/injection, schedule: Q01DX011 (ip), vehicle: methylcellulose (MC)) was 12 % of control.
For `COc1ccc(CSc2ncnc3nc[nH]c23)cc1`, the T/C (dose: 1.5 mg/kg/injection, schedule: Q01DX011 (ip), vehicle: carboxymethylcellulose (CMC)) was 89 % of control, the T/C (dose: 3.0 mg/kg/injection, schedule: Q01DX011 (ip), vehicle: carboxymethylcellulose (CMC)) was 88 % of control and the T/C (dose: 6.0 mg/kg/injection, schedule: Q01DX011 (ip), vehicle: carboxymethylcellulose (CMC)) was 65 % of control. For the same molecule, the T/C (dose: 7.8 mg/kg/injection, schedule: Q01DX011 (ip), vehicle: methylcellulose (MC)) was 58 % of control, the T/C (dose: 15.6 mg/kg/injection, schedule: Q01DX011 (ip), vehicle: methylcellulose (MC)) was 13 % of control and the T/C (dose: 31.2 mg/kg/injection, schedule: Q01DX011 (ip), vehicle: methylcellulose (MC)) was 10 % of control.
With `Cc1ccccc1Nc1cc(Cl)nc(N)n1` the T/C (dose: 15.0 mg/kg/injection, schedule: Q01DX011 (ip), vehicle: methylcellulose (MC)) was 73 % of control, the T/C (dose: 31.0 mg/kg/injection, schedule: Q01DX011 (ip), vehicle: methylcellulose (MC)) was 85 % of control and the T/C (dose: 62.0 mg/kg/injection, schedule: Q01DX011 (ip), vehicle: methylcellulose (MC)) was 75 % of control. For the same molecule, the T/C (dose: 125.0 mg/kg/injection, schedule: Q01DX011 (ip), vehicle: methylcellulose (MC)) was 120 % of control and the T/C (dose: 250.0 mg/kg/injection, schedule: Q01DX011 (ip), vehicle: methylcellulose (MC)) was 93 % of control.
For `CC1CCc2ccccc2N1C(=O)CCCl` (stereo unspecified), the T/C [3] was 48 % of control, the T/C (dose: 75.0 mg/kg/injection, schedule: Q01DX011 (ip), vehicle: methylcellulose (MC)) was 82 % of control and the T/C (dose: 225.0 mg/kg/injection, schedule: Q01DX011 (ip), vehicle: methylcellulose (MC)) was 50 % of control.
For `CC(C)CCCCCCCCCCCCC(=O)NCC(=O)NC1C(O)C(O)C(Nc2ncnc3nc[nH]c23)OC1C(O)CO` (stereo unspecified), the T/C (dose: 0.11 mg/kg/injection, schedule: Q## X000 (ip), vehicle: carboxymethylcellulose (CMC)) was 62 % of control, the T/C (dose: 0.22 mg/kg/injection, schedule: Q01DX011 (ip), vehicle: carboxymethylcellulose (CMC)) was 65 % of control and the T/C (dose: 0.22 mg/kg/injection, schedule: Q## X000 (ip), vehicle: carboxymethylcellulose (CMC)) was 41 % of control. The T/C (dose: 0.45 mg/kg/injection, schedule: Q01DX011 (ip), vehicle: carboxymethylcellulose (CMC)) was 29 % of control, the T/C (dose: 0.45 mg/kg/injection, schedule: Q## X000 (ip), vehicle: carboxymethylcellulose (CMC)) was 12 % of control and the T/C (dose: 0.9 mg/kg/injection, schedule: Q01DX011 (ip), vehicle: carboxymethylcellulose (CMC)) was 5 % of control.
With `C[C@H]1C[C@@H]2[C@H](C(=O)C[C@@]3(C)[C@H]2CC[C@]3(O)C(=O)CO)[C@@]2(C)C=CC(=O)C=C12` the T/C (dose: 50.0 mg/kg/injection, schedule: Q01DX011 (sc), vehicle: steriod suspending solution) was 30 % of control and the T/C (dose: 100.0 mg/kg/injection, schedule: Q01DX011 (sc), vehicle: steriod suspending solution) was 23 % of control.
For `Cc1nc(Cl)c(C#N)c(C(F)(F)F)c1N`, the T/C [4] was 153 % of control.
In the case of `Nc1nsnc1C(=O)O`, the T/C (dose: 93.0 mg/kg/injection, schedule: Q01DX011 (ip), vehicle: carboxymethylcellulose (CMC)) is reported as 80 % of control and the T/C (dose: 187.0 mg/kg/injection, schedule: Q01DX011 (ip), vehicle: carboxymethylcellulose (CMC)) is reported as 98 % of control.
For `COC1=NC2=NCCN2C(OC)=N1`, the T/C (dose: 25.0 mg/kg/injection, schedule: Q01DX011 (ip), vehicle: saline) was 94 % of control, the T/C (dose: 75.0 mg/kg/injection, schedule: Q01DX011 (ip), vehicle: saline) was 69 % of control and the T/C (dose: 225.0 mg/kg/injection, schedule: Q01DX011 (ip), vehicle: saline) was 54 % of control.
For `NNc1nncc2ccccc12`, the T/C (dose: 37.5 mg/kg/injection, schedule: Q01DX011 (ip), vehicle: carboxymethylcellulose (CMC)) was 90 % of control and the T/C (dose: 75.0 mg/kg/injection, schedule: Q01DX011 (ip), vehicle: carboxymethylcellulose (CMC)) was 47 % of control.
In the case of `CN(C)CCCCl`, the T/C (dose: 25.0 mg/kg/injection, schedule: Q01DX011 (ip), vehicle: other) is reported as 81 % of control, the T/C (dose: 50.0 mg/kg/injection, schedule: Q01DX011 (ip), vehicle: other) is reported as 83 % of control and the T/C (dose: 100.0 mg/kg/injection, schedule: Q01DX011 (ip), vehicle: other) is reported as 98 % of control.
`CCCCCCCCn1cnc2c(=S)nc[nH]c21` was tested, and the T/C (dose: 125.0 mg/kg/injection, schedule: Q01DX011 (ip), vehicle: carboxymethylcellulose (CMC)) was 84 % of control, the T/C (dose: 250.0 mg/kg/injection, schedule: Q01DX011 (ip), vehicle: carboxymethylcellulose (CMC)) was 67 % of control and the T/C (dose: 500.0 mg/kg/injection, schedule: Q01DX011 (ip), vehicle: carboxymethylcellulose (CMC)) was 102 % of control.
